Experiment [1] concerns the target T1, Hedgehog acyltransferase (Hhat) (Homo sapiens, UniProt Q5VTY9). In words: YnPal palmitoylation tagging in HEK-293 Shh+ cells, spike-in SILAC quantitative proteomics (Western blot TC50 […]). The class given is cell-based. (In general: In western blotting, separated proteins are transferred to a membrane and probed.)
Experiment [2] concerns the target T1, Hedgehog acyltransferase (Hhat). In words: YnPal palmitoylation profiling in cells by quantitative proteomics. Format: cell-based.

T1 sequence (Q5VTY9 whole entry): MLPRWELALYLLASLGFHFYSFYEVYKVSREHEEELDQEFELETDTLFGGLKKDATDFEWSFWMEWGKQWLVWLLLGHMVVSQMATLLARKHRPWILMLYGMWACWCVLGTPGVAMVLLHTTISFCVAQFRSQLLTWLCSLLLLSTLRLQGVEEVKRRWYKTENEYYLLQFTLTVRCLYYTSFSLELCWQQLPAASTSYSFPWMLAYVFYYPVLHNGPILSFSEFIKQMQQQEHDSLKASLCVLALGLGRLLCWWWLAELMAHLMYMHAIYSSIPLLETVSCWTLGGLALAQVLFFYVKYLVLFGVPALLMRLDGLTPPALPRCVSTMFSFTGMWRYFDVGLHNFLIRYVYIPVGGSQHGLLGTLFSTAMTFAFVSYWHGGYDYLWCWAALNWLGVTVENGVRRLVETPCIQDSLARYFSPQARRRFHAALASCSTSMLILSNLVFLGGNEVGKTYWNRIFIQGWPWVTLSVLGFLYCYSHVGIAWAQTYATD

By IC50 is commonly meant the concentration that gives 50% inhibition. A lower IC50 goes with greater potency in that assay. `CCC(C)CNCC(=O)N1CCc2sccc2C1c1cccc(C)n1` (racemic) [RUSKI-201] showed an IC50 in experiment [1] of 730 ± 90 nM.

Consider `C=CCNCC(=O)N1CCc2sccc2C1COc1ccc(Cl)cc1` (centres unmarked) [RUSKI-41], for which, in experiment [2], the “YnPal palmitoylation profiling in cells by quantitative proteomics” value is reported as “RUSKI-41 also inhibited only Hh palmitoylation (Supporting Information Figure S6, Table S2)”.

The values are drawn from paper PMC5349656, “Characterization of Hedgehog Acyltransferase Inhibitors Identifies a Small Molecule Probe for Hedgehog Signaling by Cancer Cells” (ACS Chemical Biology, 2016).
